# In patent US20220168309A1 (F-STAR THERAPEUTICS, INC., priority 2019, published 2022):
# Biological target: STING (Homo sapiens, UniProt Q86WV6)
# Assay: STING antagonist activity, cell-based ISG54 promoter-reporter luciferase measurement of IRF activity (THP-1 dual / RAW-ISG cells)
# Conditions: Antagonist Activity of Exemplary Compounds; cell line and agonist not given; read-out: IC50
# Experimental: THP-1 dual cells (InvivoGen) were cultured under 5% CO2 at 37° C. in RPMI containing 10% fetal bovine serum (FBS), 100 IU mL-1 penicillin and 100 μg mL-1 streptomycin. RAW-ISG cells (InvivoGen) were cultured under 5% CO2 at 37° C. in DMEM containing 10% fetal bovine serum (FBS), 100 IU mL-1 penicillin and 100 μg mL-1 streptomycin. THP-1 dual cells were seeded into the 96 well assay plate on the day of assay whereas RAW cells were seeded into the 96 well assay plate 18 hours before the assay.
# (§1) 50,000 cells seeded in a 96-well flat bottom white assay plate were treated with different concentrations (10 uM to 0.01 uM) of compounds for 1 h followed by STING induction with either 30 nM SB 11285 or 10 ug/mL 2′-3′ cGAMP. The cells were then incubated for 20 hours @ 37° C. in CO2 incubator before measuring IRF activation by using Quanti-Luc (InvivoGen). The % inhibition was calculated as 100−{[(luminescence of COI treated well/luminescence of non-COI treated well)/100]×100}. IC50 was calculated by plotting in Xlfit.
# as §1, with “1 μM” for “30 nM”
# THP1-Dual-WT cells (InvivoGen) were plated into 96-well flat bottom plate at 5×10^4 cells/140 μL/well in triplicate. Cells were then treated with diluted antagonist compounds at 10 μL/well for 1 h, followed by treatment with compounds or 2′3′-cGAMP/lipo mixture for 18 h. The levels of IRF activity were determined using Quanti-luc (InvivoGen) and calculated against IRF activity in DMSO-treated cells. IC50 and CC50 values were calculated using Xlfit.
# Chain of STING (Q86WV6 whole entry): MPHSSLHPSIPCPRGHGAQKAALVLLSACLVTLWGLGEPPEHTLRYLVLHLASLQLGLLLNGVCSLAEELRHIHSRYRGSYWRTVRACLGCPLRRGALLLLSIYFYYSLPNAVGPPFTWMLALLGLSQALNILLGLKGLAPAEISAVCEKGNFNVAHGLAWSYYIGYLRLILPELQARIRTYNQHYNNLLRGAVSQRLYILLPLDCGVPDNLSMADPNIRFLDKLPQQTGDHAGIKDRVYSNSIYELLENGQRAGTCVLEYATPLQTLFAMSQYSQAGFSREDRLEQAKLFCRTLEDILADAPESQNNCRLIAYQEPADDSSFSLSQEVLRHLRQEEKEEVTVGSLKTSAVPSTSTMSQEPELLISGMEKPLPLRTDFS
row,Compound,IC50 [µM]
1,COC(=O)CCCCCCCCCCCCCCCn1cnc2ncnc(Cl)c21 [Compound 1],1 to 5
2,COC(=O)CCCCCCCCCCCCCCCn1cnc2nc(Cl)ncc21 [Compound 2],10 to 20
3,COC(=O)CCCCCCCCCCCCCCCn1cnc2ncncc21 [Compound 3],> 20
4,COC(=O)CCCCCCCCCCCCCCCn1ccc2nc(Cl)nc(Cl)c21 [Compound 4],> 20
5,COC(=O)CCCCCCCCCCCCCCCn1cnc2nc(N)nc(Cl)c21 [Compound 5],5 to 10
6,COC(=O)CCCCCCCCCCn1cnc2nc(Cl)nc(Cl)c21 [Compound 7],0.001 to 1
7,CCOC(=O)Cn1cnc2nc(Cl)nc(Cl)c21 [Compound 8],0.001 to 1
8,"COC(=O)CCCCCCCCCCCCCCCn1cnc2nc(Cl)nc(N)c21 [Compound 9, methyl (6-amino-2-chloro-7H-purin-7-yl)hexadecanoate]",1 to 5
9,"O=C(O)CCCCCCCCCCCCCCCn1cnc2nc(Cl)nc(O)c21 [Compound 10, 16-(2-chloro-6-hydroxy-7H-purin-7-yl)hexadecanoic acid]",> 20
10,"COC(=O)CCCCCCCCCCCCCCCn1cnc2nc(Cl)nc(O)c21 [Compound 11, methyl 16-(2-chloro-6-hydroxy-7H-purin-7-yl)hexadecanoate]",10 to 20
11,CCOC(=O)CCCCCCCn1cnc2nc(Cl)nc(Cl)c21 [Compound 12],0.001 to 1
12,COC(=O)CCCCCCn1cnc2nc(Cl)nc(Cl)c21 [Compound 13],0.001 to 1
13,"CCCCCCCCCCCCCCC(C(=O)OCc1ccc(OC)cc1)n1cnc2c(Cl)nc(Cl)nc21 (stereo not drawn) [Compound 15, 4-methoxybenzyl 2-(2,6-dichloro-9H-purin-9-yl)hexadecanoate]",> 20
14,CCCCCCCCCCCCCCC(C(=O)O)n1cnc2c(Cl)nc(Cl)nc21 (stereo not drawn) [Compound 16],10 to 20
15,"CCCCCCCCCCCCCCC(C(=O)O)n1ccc2c(Cl)nc(Cl)nc21 (stereo not drawn) [Compound 17, 2-(2,4-dichloro-7H-pyrrolo[2,3-d]pyrimidin-7-yl)hexadecanoic acid]",> 20
16,"CCCCCCCCC(C(=O)OCC)n1cnc2c(Cl)nc(Cl)nc21 (stereo not drawn) [Compound 18, ethyl 2-(2,6-dichloro-9H-purin-9-yl)decanoate]",1 to 5
17,"CCCCCCCCC(C(=O)O)n1cnc2c(Cl)nc(Cl)nc21 (stereo not drawn) [Compound 19, 2-(2,6-dichloro-9H-purin-9-yl)decanoic acid]",5 to 10
18,COC(=O)CCCCCCCCCCCCCCCn1cnc2c(NCCS(N)(=O)=O)nc(Cl)nc21 [Compound 21],10 to 20
19,"COc1ccc(Cn2cnc3c(NCCCCCC(=O)O)nc(Cl)nc32)cc1 [Compound 22, 6-((2-chloro-9-(4-methoxybenzyl)-9H-purin-6-yl)amino)hexanoic acid]",> 20
20,"CNc1nc(Cl)nc2ncn(CCCCCCCCCCCCCCCC(=O)OC)c12 [Compound 23, methyl 16-(2-chloro-6-(methylamino)-7H-purin-7-yl)hexadecanoate]",> 20
21,"COC(=O)CCCCCCCCCCCCCCCn1cnc2nc(Cl)nc(N(C)C)c21 [Compound 24, methyl 16-(2-chloro-6-(dimethylamino)-7H-purin-7-yl)hexadecanoate]",1 to 5
22,"OCCCCCCCCCCCCCCCCn1cnc2nc(Cl)nc(Cl)c21 [Compound 25, 16-(2,6-dichloro-7H-purin-7-yl)hexadecan-1-ol]",0.001 to 1
23,"CCCCCCCCCCCCCCCCn1cnc2nc(Cl)nc(Cl)c21 [Compound 26, 2,6-dichloro-7-hexadecyl-7H-purine]",0.001 to 1
24,"COC(=O)CCCCCCCCCCCCCCCn1cnc2ncnc(SC)c21 [Compound 27, methyl 16-(6-(methylthio)-7H-purin-7-yl)hexadecanoate]",5 to 10
25,"COC(=O)CCCCCCCCCCCCCCCn1cnc2ncnc(S(C)(=O)=O)c21 [Compound 28, methyl 16-(6-(methylsulfonyl)-7H-purin-7-yl)hexadecanoate]",0.001 to 1
26,"COC(=O)CCCCCCCCCCCCCCCn1c(C)nc2nc(Cl)nc(Cl)c21 [Compound 29, methyl 16-(2,6-dichloro-8-methyl-7H-purin-7-yl)hexadecanoate]",0.001 to 1

row,Compound,IC50 [µM]
1,"O=C(O)CCCCCCCCCCCCCCCn1cnc2nc(Cl)nc(Cl)c21 [Compound 30, 16-(2,6-dichloro-7H-purin-7-yl)hexadecanoic acid]",1 to 5
2,"COC(=O)CCCCCn1cnc2nc(Cl)nc(Cl)c21 [Compound 31, methyl 6-(2,6-dichloro-7H-purin-7-yl) hexanoate]",1 to 5
3,"COC(=O)CCCCn1cnc2nc(Cl)nc(Cl)c21 [Compound 32, methyl 5-(2,6-dichloro-7H-purin-7-yl)pentanoate]",1 to 5
4,"CC(=O)OCCCCCn1cnc2nc(Cl)nc(Cl)c21 [Compound 33, 5-(2,6-dichloro-7H-purin-7-yl)pentyl acetate]",1 to 5
5,"COC(=O)CCCCCCCCCCCCCCCn1c(C)nc2c(Cl)nc(Cl)nc21 [Compound 34, methyl 16-(2,6-dichloro-8-methyl-9H-purin-9-yl)hexadecanoate]",10 to 20
6,"Clc1nc(Cl)c2c(ncn2CCCCCCCCCCCCn2cnc3nc(Cl)nc(Cl)c32)n1 [Compound 35, 1,12-bis(2,6-dichloro-7H-purin-7-yl) dodecane]",1 to 5
7,"CCCCCCCCC(C(=O)OCC)n1cnc2nc(Cl)nc(Cl)c21 (stereo not drawn) [Compound 36, ethyl 2-(2,6-dichloro-7H-purin-7-yl) decanoate]",1 to 5
8,"COC(=O)CCCn1cnc2nc(Cl)nc(Cl)c21 [Compound 37, methyl 4-(2,6-dichloro-7H-purin-7-yl)butanoate]",5 to 10
9,"COC(=O)CCCCCCCCCCCCCCCn1cnc2nc(F)nc(Cl)c21 [Compound 38, methyl 16-(6-chloro-2-fluoro-7H-purin-7-yl)hexadecanoate]",1 to 5
10,"COC(=O)CCCCCCCCCCCCCCCn1cnc2nc(Cl)nc(S(C)(=O)=O)c21 [Compound 39, methyl 16-(2-chloro-6-(methylsulfonyl)-7H-purin-7-yl) hexadecanoate]",> 20
11,"OCCCCCCCCCCn1cnc2nc(Cl)nc(Cl)c21 [Compound 40, 10-(2,6-dichloro-7H-purin-7-yl)decan-1-ol]",0.001 to 1
12,"COC(=O)CCCCCCCCCCCCCCCn1cnc2nccc(Cl)c21 [Compound 41, methyl 16-(7-chloro-1H-imidazo[4,5-b]pyridin-1-yl) hexadecanoate]",> 20
13,"COC(=O)CCCCCCCCCCCCCCCn1cnc2c(Cl)ccnc21 [Compound 42, methyl 16-(7-chloro-3H-imidazo[4,5-b]pyridin-3-yl) hexadecanoate]",> 20
14,COC(=O)CCCCCCCCCCCCCCCn1cnc2ccnc(Cl)c21 [Compound 43],> 20
15,COC(=O)CCCCCCCCCCCCCCCn1cnc2c(Cl)nccc21 [Compound 44],> 20
16,"OCCCCCCn1cnc2nc(Cl)nc(Cl)c21 [Compound 45, 6-(2,6-dichloro-7H-purin-7-yl)hexan-1-ol]",1 to 5
17,"COC(=O)CCCCCCCCCCCCCCCn1cnc2nc(NC(C)=O)nc(Cl)c21 [Compound 46, methyl 16-(2-acetamido-6-chloro-7H-purin-7-yl) hexadecanoate]",> 20
18,"COC(=O)CCCCCCCCCCCCCCCn1cnc2c(Cl)nc(NC(C)=O)nc21 [Compound 47, methyl 16-(2-acetamido-6-chloro-9H-purin-9-yl)hexadecanoate]",> 20
19,"OCCOCCOCCOCCn1cnc2nc(Cl)nc(Cl)c21 [Compound 48, 2-(2-(2-(2-(2,6-dichloro-7H-purin-7-yl)ethoxy)ethoxy)ethoxy)ethan-1-ol]",1 to 5
20,"CC(C)n1cnc2nc(Cl)nc(Cl)c21 [Compound 49, 2,6-dichloro-7-isopropyl-7H-purine]",> 20
21,"COC(=O)CCCCCCCCCCCCCCCn1ccc2c(Cl)nc(Cl)nc21 [Compound 50, methyl 16-(2,4-dichloro-7H-pyrrolo[2,3-d]pyrimidin-7-yl)hexadecanoate]",> 20
22,"OCCOCCOCCOCCn1cnc2c(Cl)nc(Cl)nc21 [Compound 51, 2-(2-(2-(2-(2,6-dichloro-9H-purin-9-yl)ethoxy)ethoxy)ethoxy)ethan-1-ol]",> 20
23,"COC(=O)CCCCCCCCCCCCCCCn1c(O)nc2nc(Cl)nc(Cl)c21 [Compound 52, methyl 16-(2,6-dichloro-8-oxo-8,9-dihydro-7H-purin-7-yl)hexadecanoate]",> 20
24,"COC(=O)CCCCCCCCCCCCCCCn1c(O)nc2c(Cl)nc(Cl)nc21 [Compound 53, methyl 16-(2,6-dichloro-8-oxo-7,8-dihydro-9H-purin-9-yl)hexadecanoate]",> 20
25,"Clc1nc(Cl)c2c(ncn2C/C=C/Cn2cnc3nc(Cl)nc(Cl)c32)n1 [Compound 54, (E)-1,4-bis(2,6-dichloro-7H-purin-7-yl)but-2-ene]",1 to 5
